The text below walks through data of publication PMC3495945, “Org 214007-0: A Novel Non-Steroidal Selective Glucocorticoid Receptor Modulator with Full Anti-Inflammatory Properties and Improved Therapeutic Index” (PLoS ONE, 2012).

The target of assay [1] is T1, human progesterone receptor B (PR-B) (Homo sapiens, UniProt P06401).
T1 construct: expressed in transfected cells; host or cells: CHO K1
T1 sequence (P06401 1-933): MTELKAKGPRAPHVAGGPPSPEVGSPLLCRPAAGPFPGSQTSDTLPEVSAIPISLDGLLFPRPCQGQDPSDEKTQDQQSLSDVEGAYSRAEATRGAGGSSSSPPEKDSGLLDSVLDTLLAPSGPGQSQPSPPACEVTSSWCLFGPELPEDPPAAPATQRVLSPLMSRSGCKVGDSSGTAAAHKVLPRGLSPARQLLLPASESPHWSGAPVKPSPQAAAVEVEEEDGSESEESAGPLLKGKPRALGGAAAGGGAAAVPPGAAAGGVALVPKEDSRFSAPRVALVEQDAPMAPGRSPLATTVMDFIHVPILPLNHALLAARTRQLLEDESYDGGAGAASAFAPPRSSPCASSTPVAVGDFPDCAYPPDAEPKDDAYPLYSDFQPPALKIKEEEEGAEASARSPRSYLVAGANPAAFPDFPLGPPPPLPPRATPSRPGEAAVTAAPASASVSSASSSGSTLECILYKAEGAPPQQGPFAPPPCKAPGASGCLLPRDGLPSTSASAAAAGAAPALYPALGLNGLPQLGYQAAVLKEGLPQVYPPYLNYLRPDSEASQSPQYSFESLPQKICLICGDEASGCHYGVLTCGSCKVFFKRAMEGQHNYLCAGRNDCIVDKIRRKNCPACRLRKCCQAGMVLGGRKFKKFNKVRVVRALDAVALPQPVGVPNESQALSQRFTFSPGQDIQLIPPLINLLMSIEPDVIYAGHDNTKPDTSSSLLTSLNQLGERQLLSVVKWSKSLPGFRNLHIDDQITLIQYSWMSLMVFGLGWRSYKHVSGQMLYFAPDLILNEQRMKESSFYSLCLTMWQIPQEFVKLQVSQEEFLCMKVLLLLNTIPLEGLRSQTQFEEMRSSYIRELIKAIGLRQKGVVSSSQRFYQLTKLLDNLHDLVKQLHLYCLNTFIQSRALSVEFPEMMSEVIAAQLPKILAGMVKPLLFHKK
Nature of the assay: CHO steroid receptor reporter assay, PR-B / MMTV-Luc. Type of assay: cell-based. The source says: (§1) For monitoring both human steroid receptor agonistic as well as antagonistic activity of compounds, Chinese hamster ovary (CHO) K1 cells stably co-transfected with the specific human steroid receptor and its respective reporter construct were used (as previously described).
(§2) For human glucocorticoid receptor (GR)-specific activity CHO-GR B4.8 cells containing both recombinant human GR as well as a reporter construct consisting of the mouse mammary tumor virus (MMTV) promotor and the luciferase reporter gene, were used. Compound was incubated alone (in the agonistic setup) or with 50 nM dexamethasone (in the antagonistic setup) overnight. Hereafter, 200 µl medium was removed and 50 µl luciferine substrate solution from the LucLite luminescence kit (Packard, Meriden, USA) was added. […] Percentage maximal antagonistic efficacy was related to the maximal antagonistic efficacy of reference GR antagonist Org 34116. Similar procedures were followed for the other human steroid receptor assays (for more detailed information see Supportive Information) (SI text).
(§3) Similar procedures were followed for the other human steroid receptor assays containing combinations of human progesterone receptor B (PR-B) and MMTV-Luc, human androgen receptor (AR) and MMTV-Luc, human chimeric glucocorticoid-mineralocorticoid receptor (GGM, Trapp et al. (1994), Neuron 13: 1457) and MMTV-Luc, human estrogen receptor alpha (ERα) and rat oxytocin-Luc (45), and human estrogen receptor beta (ERβ) and rat oxytocin-Luc, respectively.
For orientation: Reporter assays use an easily measured gene product as a stand-in for the process of interest.

In assay [2] the target is T2, human chimeric glucocorticoid-mineralocorticoid receptor (GGM) (Homo sapiens, UniProt P04150+P08235, G607S/G671E/L660Y/Q661R/V618L).
T2 construct: glucocorticoid receptor part of the chimera (human NR3C1, P04150); expressed in transfected cells; host or cells: CHO K1
T2 sequence (P04150+P08235 with tags, fused parts or gaps P08235:G607S/P08235:V618L/P08235:L660Y/P08235:Q661R/P08235:G671E): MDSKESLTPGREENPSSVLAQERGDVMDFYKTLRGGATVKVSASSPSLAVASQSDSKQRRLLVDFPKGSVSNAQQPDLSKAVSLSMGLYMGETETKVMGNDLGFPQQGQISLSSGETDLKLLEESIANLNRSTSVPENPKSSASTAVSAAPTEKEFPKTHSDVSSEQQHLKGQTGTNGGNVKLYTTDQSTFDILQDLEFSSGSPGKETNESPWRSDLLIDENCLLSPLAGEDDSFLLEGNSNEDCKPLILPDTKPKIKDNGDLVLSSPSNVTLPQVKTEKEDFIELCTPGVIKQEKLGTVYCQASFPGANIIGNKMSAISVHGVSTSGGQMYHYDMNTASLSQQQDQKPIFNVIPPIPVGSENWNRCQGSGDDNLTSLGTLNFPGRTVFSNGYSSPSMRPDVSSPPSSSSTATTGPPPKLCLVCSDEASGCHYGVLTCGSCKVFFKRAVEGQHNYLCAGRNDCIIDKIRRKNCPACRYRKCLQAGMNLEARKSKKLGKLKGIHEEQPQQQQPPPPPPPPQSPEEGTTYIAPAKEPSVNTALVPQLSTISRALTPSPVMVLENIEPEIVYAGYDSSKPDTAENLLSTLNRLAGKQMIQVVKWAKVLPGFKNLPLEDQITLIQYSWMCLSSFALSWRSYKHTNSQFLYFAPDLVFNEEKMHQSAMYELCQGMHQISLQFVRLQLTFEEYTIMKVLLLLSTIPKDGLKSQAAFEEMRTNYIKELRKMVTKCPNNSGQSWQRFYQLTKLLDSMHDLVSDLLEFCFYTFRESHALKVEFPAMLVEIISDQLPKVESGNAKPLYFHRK
Nature of the assay: CHO steroid receptor reporter assay, MR (GGM) / MMTV-Luc. Type of assay: cell-based.
Text: as §1, §2, §3

Where [3] appears, read: read-out: % efficacy (antagonist).

Regarding `Cc1nnsc1C(=O)N[C@H]1CCN2c3ccc(C#N)cc3[C@@H](C)c3ccccc3[C@@H]2C1` [Org 214007-0], the IC50 in assay [1] (mean (±SD), read-out: IC50 (antagonist)) is 0.0194 µM; in assay [2] (read-out: IC50 (antagonist)), greater than 1.26 µM. For the same molecule, the Emax in assay [1] (setting [3]) was greater than 87%; in assay [2] (setting [3]), greater than 40%. The results for the EC50 in assay [1] (read-out: EC50 (agonist)) and in assay [2] (read-out: EC50 (agonist)) were greater than 0.1 µM and greater than 1 µM, respectively. The “% agonist potency” value in assay [1] (relative to reference compound) was less than 0.03%; in assay [2] (relative to reference compound), less than 0.1%. Besides, the “% antagonist potency” value in assay [1] (relative to reference compound, mean (±SD)) is on record as 0.46 (±0.2) %; in assay [2] (relative to reference compound) it was less than 1.27%.

In general, IC50 refers to the point on the concentration scale where inhibition reaches its midpoint. For orientation: EC50 means the concentration needed to bring the measured effect to its halfway point.
